Experiments:
[1] = target: T1, recombinant human IDE42-1019 (Homo sapiens, UniProt P14735); test: Protease assay with fluorogenic peptide substrate Mca-[…](Dnp)-OH; format: biochemical; details: fluorogenic peptide Mca-RPPGFSAFK(Dnp)-OH; for IC50: apparent IC50 for compounds with submaximal inhibition, read-out: IC50 (μM) Proteolysis; for Emax: plateau at high inhibitor concentration, read-out: Imax (%) Proteolysis (inhibition maximum)
T1 construct: recombinant human IDE42-1019 (R&D Systems); purchased R&D Systems
T1 sequence (P14735 42-1019): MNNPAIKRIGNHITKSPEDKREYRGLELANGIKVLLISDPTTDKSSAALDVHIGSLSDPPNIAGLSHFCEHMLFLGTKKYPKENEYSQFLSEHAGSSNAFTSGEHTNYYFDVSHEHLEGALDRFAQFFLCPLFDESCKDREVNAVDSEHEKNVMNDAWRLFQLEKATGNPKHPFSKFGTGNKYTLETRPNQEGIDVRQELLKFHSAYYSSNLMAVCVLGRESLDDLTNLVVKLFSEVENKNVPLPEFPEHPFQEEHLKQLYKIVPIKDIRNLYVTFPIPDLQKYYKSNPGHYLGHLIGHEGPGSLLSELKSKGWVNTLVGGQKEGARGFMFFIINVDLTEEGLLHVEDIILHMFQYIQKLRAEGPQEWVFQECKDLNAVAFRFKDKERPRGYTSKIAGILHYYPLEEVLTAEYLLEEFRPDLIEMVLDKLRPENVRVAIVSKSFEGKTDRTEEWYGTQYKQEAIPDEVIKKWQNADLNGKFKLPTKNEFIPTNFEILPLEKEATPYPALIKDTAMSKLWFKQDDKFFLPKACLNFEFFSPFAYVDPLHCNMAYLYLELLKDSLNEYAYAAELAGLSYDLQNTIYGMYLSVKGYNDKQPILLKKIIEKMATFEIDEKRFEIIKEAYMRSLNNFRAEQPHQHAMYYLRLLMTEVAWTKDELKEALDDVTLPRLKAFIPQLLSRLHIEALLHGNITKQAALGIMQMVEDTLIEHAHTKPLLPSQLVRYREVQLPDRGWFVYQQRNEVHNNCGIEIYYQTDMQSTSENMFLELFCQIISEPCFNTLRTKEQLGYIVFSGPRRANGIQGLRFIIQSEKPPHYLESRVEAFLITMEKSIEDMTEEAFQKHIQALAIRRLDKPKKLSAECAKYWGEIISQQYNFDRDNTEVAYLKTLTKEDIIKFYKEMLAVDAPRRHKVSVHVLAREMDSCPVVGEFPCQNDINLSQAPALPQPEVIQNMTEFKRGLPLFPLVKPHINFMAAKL

[2] = target: T2, Human N-His6-IDE42-1019 (E. coli expressed) (Homo sapiens, UniProt P14735); test: Fluorescence anisotropy high-throughput screening assay (displacement of probe FL-6b); format: binding
T2 construct: Human N-His6-IDE42-1019 (E. coli expressed); made in house; host or cells: E. coli (Rosetta 2 (DE3) pLysS, plasmid pTrcHis-A)
T2 sequence (P14735 42-1019): T1 sequence (P14735 42-1019)
Description: The fluorescence anisotropy screening method and probe FL-6b are described in PCT application PCT/US2014/064322, incorporated herein by reference.
Human N-His6-IDE42-1019 (E. coli expressed) was mixed with fluorescein-labeled macrocycle FL-6b:
[drawing 802] in 50 mM Tris buffer pH 8.0, with 1 M NaCl, at 25° C. Optimum signal was obtained using a mixture of […] probe FL-6b and 0.5 μM IDE. The “diversity-oriented (DOS) synthesis informer set” compound plates were pinned onto 384-well plates containing the enzyme-probe mixture (50 μL/well). The azetidine screen was pre-printed on 384-well plates and the enzyme-probe mixture was added (50 μL/well). The final compound concentration was 20 μM. IDE inhibitor 6bK was used as a positive control at a final concentration of 1 μM. After 30 minutes of equilibration, the increase in fluorescence anisotropy was recorded using an EnVision spectrophotometer (excitation 492 nm, emission 523 nm). The fluorescence anisotropy was independently measured twice for each screened compound. The Z-scores for each pair of measurements are plotted in FIG. 1A (DOS informer set) and FIG. 1B (azetidines), and average Z-scores are listed for exemplary compounds in Table E1.
Z-scores were calculated based on the raw anisotropy measured for each well according to Eq. 1, wherein x is the raw anisotropy value of the well, μ is the mean of the anisotropy of the negative control wells (DMSO) for the plate, and σ is the standard deviation in anisotropy of the negative control wells (DMSO) for the plate.

[3] = final compound concentration 20 μM (6bK control 1 μM), values without asterisk
[4] = values marked *: from the screen using the diversity-oriented synthesis (DOS) informer set of plates, 20 μM

SMILES | IC50 [1] | Average Z-score (Fluorescence anisotropy) [2, 3] | Emax [1] | Average Z-score (Fluorescence anisotropy) [2, 4]
CCCCC(=O)N1CC(=O)N2[C@@H](CO)[C@@H](c3ccc(C#Cc4cccc(OC)c4)cc3)[C@@H]2C1 [compound 564] | > 100 µM | −1.33 | – | –
Cc1ccccc1-c1ccc(C2C3CN(S(=O)(=O)c4cn(C)cn4)CC2N3)cc1 (stereo not drawn) [C2] | 7 µM | −16.62 | 50% | –
CCS(=O)(=O)N1CCCCN2[C@H](CO)[C@@H](c3ccc(-c4ccccc4C)cc3)[C@@H]2C1 [compound 416] | – | −18.29 | 60% | –
O=C(CC1CC1)N1CC(=O)N2[C@H](C1)[C@H](c1ccc(C#Cc3ccccc3)cc1)[C@@H]2CO [compound 187] | > 20 µM | −15.91 | – | –
COc1cccc(C#Cc2ccc([C@@H]3[C@H](CO)N4C(=O)CN(C(C)=O)C[C@@H]34)cc2)c1 [compound 608] | < 10 µM | −15.34 | ~100% | –
COc1ccccc1-c1ccc([C@H]2[C@@H](CO)N3CCCCN(C(=O)NC4CCCC4)C[C@H]23)cc1 [compound 439] | 2.5 µM | −19.08 | 50% | –
COc1ccccc1-c1ccc([C@@H]2[C@@H](C#N)N(C(=O)NC3CCCCC3)[C@@H]2CO)cc1 [D8] | 1 µM | −33.77 | 40% | –
O=C(C1CCOCC1)N1CC(=O)N2[C@H](CO)[C@H](c3ccc(C#Cc4cccc(F)c4)cc3)[C@H]2C1 [compound 142] | 6 µM | −19.27 | ~100% | –
CCS(=O)(=O)N1CCCCN2[C@@H](CO)[C@@H](c3ccc(C#Cc4ccccc4OC)cc3)[C@@H]2C1 [compound 964] | 2.5 µM | −19.69 | 90% | –
Cc1ccccc1-c1ccc([C@H]2[C@@H](CO)N3C(=O)CN(C(=O)Cc4ccccn4)C[C@@H]23)cc1 [compound 805] | 2.5 µM | −17.31 | 70% | –
Cc1ccccc1-c1ccc([C@H]2[C@@H](CO)N3CCCCN(C(=O)Nc4ccc(F)cc4)C[C@@H]23)cc1 [compound 226] | – | −1.67 | 30% | –
Cc1ccccc1-c1ccc([C@H]2[C@@H](CO)N3C(=O)CN(C(=O)Nc4ccc(F)cc4)C[C@H]23)cc1 [compound 510] | 0.5 µM | −21.34 | 30% | –
Cc1ccccc1-c1ccc(C2C3CN(C(=O)C4CCOCC4)CC2N3)cc1 (stereo not drawn) [C7] | 2.5 µM | −7.7 | 80% | –
Cc1ccccc1-c1ccc([C@H]2[C@H](CO)N3C(=O)CN(C(=O)c4cccnc4)C[C@@H]23)cc1 [compound 491] | > 10 µM | −12.38 | 70% | –
Cc1ccccc1-c1ccc([C@H]2[C@H](CO)N3C(=O)CN(C(=O)Cc4ccccn4)C[C@@H]23)cc1 [compound 321] | – | −17.72 | 50% | –
Cc1ccccc1-c1ccc([C@H]2[C@H](CO)N3C(=O)CN(C(=O)Nc4cccc(F)c4)C[C@@H]23)cc1 [compound 534] | 7 µM | −3.03 | 70% | –
Cc1cccc(-c2ccc([C@@H]3[C@@H](CO)N4C(=O)CN(C(=O)NC5CCCCC5)C[C@@H]34)cc2)c1 [compound 904] | > 5 µM | −16.59 | – | –
Cc1ccccc1-c1ccc([C@H]2[C@H](CO)N3C(=O)CN(S(C)(=O)=O)C[C@@H]23)cc1 [compound 061] | > 100 µM | −1.36 | – | –
COc1ccc(NC(=O)N2CCCCN3[C@H](CO)[C@H](c4ccc(-c5ccccc5C)cc4)[C@@H]3C2)cc1 [compound 529] | – | −0.82 | 30% | –
Cc1ccccc1-c1ccc(C2C3CN(C(=O)c4cnccn4)CC2N3)cc1 (stereo not drawn) [C1] | 2 µM | −20.0 | 70% | –
O=C(c1ccccn1)N1CC(=O)N2[C@@H](CO)[C@@H](c3ccc(C#Cc4ccccc4)cc3)[C@@H]2C1 [compound 479] | < 10 µM | −19.91 | ~100% | –
COc1ccccc1-c1ccc(C2C3CN(C(=O)c4cccnc4)CC2N3)cc1 (stereo not drawn) [C4] | 7.5 µM | −13.76 | 70% | –
Cc1ccccc1-c1ccc(C2C3CN(Cc4ccncc4)CC2N3)cc1 (stereo not drawn) [C3] | 5 µM | −9.02 | 70% | –

Second part, the compound after the results:

IC50 [1] | Average Z-score (Fluorescence anisotropy) [2, 3] | Emax [1] | Average Z-score (Fluorescence anisotropy) [2, 4] | SMILES
> 60 µM | −6.79 | – | – | Cc1cccc(-c2ccc([C@H]3[C@@H](CO)N4CCCCN(Cc5cccnc5)C[C@H]34)cc2)c1 [compound 959]
> 100 µM | −3.25 | – | – | Cc1cccc(-c2ccc([C@@H]3[C@@H](CO)N4CCCCN(C(=O)c5cccnc5)C[C@@H]34)cc2)c1 [compound 296]
> 10 µM | −16.96 | – | – | Cc1cccc(-c2ccc([C@@H]3[C@H]4CN(C(=O)c5ccncc5)CCCCN4[C@H]3CO)cc2)c1 [compound 316]
2.5 µM | −9.77 | 30% | – | Cc1cccc(-c2ccc([C@@H]3[C@@H](CO)N4CCCCN(S(=O)(=O)c5cccc(C)c5)C[C@@H]34)cc2)c1 [compound 496]
7 µM | −16.96 | 70% | – | Cc1cccc(-c2ccc([C@H]3[C@@H](CO)N4CCCCN(C(=O)c5cccnc5)C[C@H]34)cc2)c1 [compound 091]
> 20 µM | – | 90% | −12.81* | COc1ccccc1-c1ccc([C@H]2[C@@H](CO)N3CCCCN(C(=O)c4cccnc4)C[C@H]23)cc1 [compound 983]
– | −17.68 | 80% | – | Cc1cccc(-c2ccc([C@@H]3[C@H]4CN(C(=O)c5cccnc5)CC(=O)N4[C@H]3CO)cc2)c1 [compound 838]
– | −5.51 | 30% | – | Cc1cccc(-c2ccc([C@@H]3[C@@H](CO)N4CCCCN(C(=O)NC(C)C)C[C@@H]34)cc2)c1 [compound 777]
> 100 µM | −2.37 | – | – | COc1cccc(-c2ccc([C@@H]3[C@@H](CO)N4CCCCN(C(=O)Nc5ccncc5)C[C@@H]34)cc2)c1 [compound 433]
– | – | 80% | −13.56* | Cc1ccccc1-c1ccc([C@@H]2[C@H]3CN(C(=O)c4ccncc4)CC(=O)N3[C@H]2CO)cc1 [compound 102]
> 100 µM | −2.88 | – | – | Cc1cccc(-c2ccc([C@@H]3[C@@H](CO)N4CCCCN(CC5CC5)C[C@@H]34)cc2)c1 [compound 837]
– | −3.77 | 30% | – | Cc1cccc(-c2ccc([C@@H]3[C@@H](CO)N4CCCCN(S(=O)(=O)c5cccs5)C[C@@H]34)cc2)c1 [compound 945]
– | −17.51 | 90% | – | Cc1cccc(-c2ccc([C@@H]3[C@@H](CO)N4C(=O)CN(C(=O)c5cnccn5)C[C@@H]34)cc2)c1 [compound 653]
